From US4677105A, “2-alkoxycarbonylalkyl-3-oxo-5,6-diaryl-as-triazines having utility as therapeutics” (PF Medicament, priority 1985, dated 1987)
Where two headings read alike, the source gives them in different places. Values belong to the molecule of their own block, whether it stands above or below them.

Experiments:
[1] = solubility; type: physicochemical; details: in words
[2] = system: phenyl benzoquinone contortion; test: phenyl benzoquinone contortion test (analgesic properties); type: in vivo, mouse; details: 0.5 h
Protocol: The activity in the phenyl benzoquinone contortion test of […] et al., J. Pharm. Exptl. […] Dose expressed in mg/kg in the mouse, 30 minutes before intraperitoneal injection of the algogenic agent. The results are expressed in percentage variation of the number of contortions.

[3] = analgesic activity, test not specified; type: in vivo; details: in words
[4] = mouse, oral, 30 minutes before intraperitoneal injection of the algogenic agent, read-out: ED50

solubility (soluble in) [1]: Soluble in hot alcohols
Structure (SMILES): CCOC(=O)C(C)n1nc(-c2ccc(O)cc2)c(-c2ccc(O)cc2)nc1=O (centres unmarked) [Example 2, 2-(1-ethoxycarbonyl-1-ethyl)-3-oxo-5,6-di(parahydroxyphenyl)-as-triazine]
solubility (insoluble in) [1]: Insoluble in water, dilute bases and acids, benzene, chloroform, methylene chloride, ether

Structure (SMILES): CCOC(=O)C(C)n1nc(-c2ccc(Cl)cc2)c(-c2ccc(Cl)cc2)nc1=O (centres unmarked) [Example 9, 2-(1-ethoxycarbonyl-1-ethyl)-3-oxo-5,6-di (p-chlorophenyl)-as-triazine]
ED50 [2, 4]: 10 mg/kg
analgesic activity [3]: effective analgesic agent

Structure (SMILES): CCOC(=O)C(C)n1nc(-c2ccc(OC)cc2)c(-c2ccc(OC)cc2)nc1=O (centres unmarked) [Example 3, 2-(1-ethoxycarbonyl-1-ethyl)-3-oxo-5,6-di(paramethoxyphenyl)-as-triazine]
ED50 [2, 4]: 13 mg/kg
solubility (insoluble in) [1]: Insoluble in water, dilute bases and acids
solubility (soluble in) [1]: Soluble in hot alcohols, benzene, chloroform, methylene chloride and ether

Structure (SMILES): CCOC(=O)C(C)n1nc(-c2ccc(C)cc2)c(-c2ccc(C)cc2)nc1=O (centres unmarked) [Example 8, 2-(1-ethoxycarbonyl-1-ethyl)-3-oxo-5,6-di(p-methylphenyl)-as-triazine]
ED50 [2, 4]: 12 mg/kg
analgesic activity [3]: effective analgesic agent

Structure (SMILES): CCOC(=O)C(C)n1nc(-c2ccc(OC)cc2)c(-c2ccc(Cl)cc2)nc1=O (centres unmarked) [Example 10, 2-(1-ethoxycarbonyl-1-ethyl)-3-oxo-5,6-(p-chloro-p-methoxy)-5,6-as-triazine]
ED50 [2, 4]: 12 mg/kg
analgesic activity [3]: effective analgesic agent

Structure (SMILES): O=C(OCC(O)CO)c1ccccc1Nc1ccnc2cc(Cl)ccc12 (centres unmarked) [Glaphenine, reference compound]
ED50 [2, 4]: 35 mg/kg

Structure (SMILES): CCOC(=O)C(CC)n1nc(-c2ccc(OC)cc2)c(-c2ccc(OC)cc2)nc1=O (centres unmarked) [Example 4, 2-(1-ethoxycarbonyl-1-propyl)-3-oxo-5,6-di(paramethoxyphenyl)-as-triazine]
ED50 [2, 4]: 11 mg/kg
solubility (insoluble in) [1]: Insoluble in water, dilute bases and acids, ether
solubility (soluble in) [1]: Soluble in hot alcohols, benzene, methylene chloride, chloroform

Structure (SMILES): CCOC(=O)C(C)n1nc(-c2ccccc2)c(-c2ccccc2)nc1=O (centres unmarked) [Example 7, 2-(1-ethoxycarbonyl-1-ethyl)-3-oxo-5,6-di (phenyl)-as-triazine]
ED50 [2, 4]: 18 mg/kg
analgesic activity [3]: effective analgesic agent

solubility (insoluble in) [1]: Insoluble: Water, ether
solubility (soluble in) [1]: Soluble in hot alcohols
Structure (SMILES): COC(=O)C(C)n1nc(-c2ccc(OC)cc2)c(-c2ccc(OC)cc2)nc1=O (centres unmarked) [Example 6, 2-(1-methoxycarbonylethyl)-3-oxo-5,6-di(paramethoxyphenyl)-as-triazine]
ED50 [2, 4]: 12 mg/kg

Structure (SMILES): CCCC(C(=O)OCC)n1nc(-c2ccc(OC)cc2)c(-c2ccc(OC)cc2)nc1=O (centres unmarked) [Example 5, 2-(1-ethoxycarbonyl-1-butyl)-3-oxo-5,6-di(paramethoxyphenyl)-as-triazine]
ED50 [2, 4]: 16 mg/kg
solubility (insoluble in) [1]: Insoluble in water, dilute bases and acids
solubility (soluble in) [1]: Soluble in hot alcohols, benzene, methylene chloride, chloroform, ether

Structure (SMILES): CC(=O)Oc1ccccc1C(=O)O [Aspirin, reference compound]
ED50 ([2]; Mus musculus, po): 100 mg/kg

Structure (SMILES): CCOC(=O)Cn1nc(-c2ccc(OC)cc2)c(-c2ccc(OC)cc2)nc1=O [Example 1, 2-ethoxy carbonyl-methyl-3-oxo-5,6-di(paramethoxyphenyl)-as-triazine]
solubility (insoluble in) [1]: Insoluble in water, dilute bases and acids
solubility (soluble in) [1]: Soluble in methylene chloride, chloroform, ether; alcohols and hot benzene
